Patent US8461305B2, “L-fucose α1→6 specific lectin” (J-Oil Mills, Inc., priority 2008, dated 2013)

What was measured:
[1] = frontal affinity chromatography (FAC), association constant to PA sugar chains having α1→6 L-fucose; assay type: binding; conditions: 25 degrees C.
Method: The following section will describe a method of calculating an association constant by frontal affinity chromatography (FAC). This method is based on the following principle. […] Then, the elution front end (front) is observed immediately. When there is an affinity with lectin, the elution of the sugar chain is delayed.
The preparation of a lectin column used in the apparatus is performed in the method as described below. 1. Purified lectin is dissolved in 0.1 to 0.2M of NaHCO3 buffer solution (pH 8.3 to 8.5). 2. The lectin is immobilized, via a lectin primary amino group, a carrier such as NHS activated sepharose. 3. Then, the lectin is blocked by Tris buffer solution including primary amine or ethanolamine for example. 4. Lectin-sepharose is suspended in 10 mM Tris buffer, including 0.8% of NaCl (pH 7.4, TBS). Then, lectin immobilized resin is filled in a miniature column (φ2 mm×10 mm, 31.4 μl). 5. The miniature column in which the lectin immobilized resin is filled is protected by a holder and the lectin column is connected to an FAC automatic analysis apparatus (FAC-1, SHIMADZU CORPORATION).
Then, the elution of the PA sugar chain from the column is detected by a fluorescence detector (excitation wavelength/fluorescence wavelength: 310 nm/380 nm).
Based on the detection data, by using the elution front end (Vo) of the sugar chain (PA rhamnose) not interacting with lectin as a reference, the delay (V−Vo) of the elution front end (V) of a sugar chain interacting with lectin is calculated as an interaction strength. Then, based on the following FAC criteria expressions, the association constant (Ka) between the sugar chain and lectin is calculated based on V−Vo and Bt. If the interaction strength (V−Vo value) and the association constant are higher, a higher affinity is caused between lectin and an L-fucose α1→6 sugar chain.
[In the formula, A means substance used for the elution, Ao means the initial concentration of the substance A, B means a immobilized ligand, V means the elution volume, Vo means the elution front end volume of the substance not interacting with the immobilized ligand B at all, Bt means an effective ligand amount, Kd means a dissociation constant (an inverse of the association constant)].
Pyridylaminated (PA) sugar chains shown in FIG. 1 and FIG. 2 were used to frontal affinity chromatography (FAC) analysis. PA sugars were purchased from TAKARA BIO INC., SEIKAGAKU BIOBUSINESS CORPORATION, and Masuda Chemical Industries co., LTD. PA sugar were also obtained by pyridylaminating, by GlycoTAG®(TAKARA BIO INC.), an unlabeled sugar chain or a sugar chain obtained by subjecting a sugar chain to enzyme digestion for example.
Lectin was dissolved in 0.2 M NaHCO3 buffer solution (pH 8.3) including 0.5 M NaCl and coupled to the NHS-activated sepharose (GE Healthcare Bioscience) by following the manufacturer's instructions. Then, lectin immobilized sepharose was suspended in 10 mM Tris buffer (pH 7.4, TBS) including […] and the resultant matter was filled in a miniature column (φ2 mm×10 mm, 31.4 μl).
Frontal affinity chromatography was performed using FAC automatic analysis apparatus (FAC-1, SHIMADZU CORPORATION). In particular, the above-prepared lectin column was inserted to a stainless steel holder and the holder was connected to FAC-1 apparatus. The flow rate and the column temperature were maintained at 0.125 ml/min and 25 degrees C., respectively. After the miniature column was equilibrated by the TBS, an excessive volume (0.5 ml to 4 ml) of a PA sugar chain (3.75 nM or 7.5 nM) was continuously inputted to the column using an automatic sampling apparatus.
The fluorescent strength of the eluate of the PA sugar (excitation wavelength of 310 nm and fluorescence wavelength of 380 nm) was monitored to measure the interaction strength [a difference of the front end eluate to the standard oligosaccharide (PA rhamnose): V−V0]. […]

glycoproteins = assay: hemagglutinating inhibition test with glycoproteins (sugar binding specificity); assay type: cell-based
From the text: The sugar binding specificity of lectin also can be confirmed by using erythrocytes that can be specifically agglutinated by the lectin to investigate the sugar type that may inhibit the agglutination of the erythrocytes and the concentration thereof.
Various monosaccharides, oligosaccharides, and polysaccharides shown in Table 2 and glycoproteins shown in Table 3 were subjected to hemagglutinating inhibition test to evaluate PTL of Example 1 and the SRL of Example 2 with regard to the sugar binding specificity.
On a 96 well U-bottom microtiter plate, double dilution series of 10 μl of monosaccharide, oligosaccharide, polysaccharide, and glycoprotein solutions were prepared. Then, lectin solution adjusted in advance to have titer 4 was added in an amount of 10 μl to the respective wells. Then, the plate was subjected to a still-standing at a room temperature for one hour for sensitization. Then, 10 μl of 4%-red blood cell suspension was added to the respective wells and the plate was further subjected to a still-standing at a room temperature for one hour. […] The lowest concentration showing the inhibition was assumed as the minimum inhibition concentration. The lower the minimum inhibition concentration is, the higher the specificity to lectin is.
For comparison, the sugar binding specificity was evaluated using the following commercially-available lectins: Comparison Example 1: AAL (SEIKAGAKU BIOBUSINESS CORPORATION—J-OIL MILLS, Inc.), Comparison Example 2: AOL (TOKYO CHEMICAL INDUSTRY CO., LTD.—Gekkeikan Sake Company, Ltd.), Comparison Example 3: LCA (SEIKAGAKU BIOBUSINESS CORPORATION—J-OIL MILLS, Inc.), and Comparison Example 4: PSA (SEIKAGAKU BIOBUSINESS CORPORATION—J-OIL MILLS, Inc.).

Stropharia rugosoannulata lectin [SRL, novel L-fucose α1→6 specific lectin purified from the mushroom Stropharia rugosoannulata]
association constant Ka ([1]; Sugar chain No. 015): 49000 M⁻¹
association constant Ka ([1]; Sugar chain No. 201): 64000 M⁻¹
association constant Ka ([1]; Sugar chain No. 202): 61000 M⁻¹
association constant Ka ([1]; Sugar chain No. 203): 52000 M⁻¹
association constant Ka ([1]; Sugar chain No. 401): 57000 M⁻¹
association constant Ka ([1]; Sugar chain No. 402): 44000 M⁻¹
association constant Ka ([1]; Sugar chain No. 403): 56000 M⁻¹
association constant Ka ([1]; Sugar chain No. 404): 58000 M⁻¹
association constant Ka ([1]; Sugar chain No. 405): 54000 M⁻¹
association constant Ka ([1]; Sugar chain No. 406): 38000 M⁻¹
association constant Ka ([1]; Sugar chain No. 407): 10000 M⁻¹
association constant Ka ([1]; Sugar chain No. 410): 39000 M⁻¹
association constant Ka ([1]; Sugar chain No. 413): 10000 M⁻¹
association constant Ka ([1]; Sugar chain No. 418): 4300 M⁻¹
association constant Ka ([1]; Sugar chain No. 601): 10000 M⁻¹
association constant Ka ([1]; Sugar chain No. 602): 32000 M⁻¹
minimum inhibition concentration of hemagglutination (glycoproteins; inhibitor: Asialofetuin): >250 μl/ml
minimum inhibition concentration of hemagglutination (glycoproteins; inhibitor: Asialomucin (pig)): >250 μl/ml
minimum inhibition concentration of hemagglutination (glycoproteins; inhibitor: Bovine blood serum albumin): >250 μl/ml
minimum inhibition concentration of hemagglutination (glycoproteins; inhibitor: Casein): >250 μl/ml
minimum inhibition concentration of hemagglutination (glycoproteins; inhibitor: Fetuin): >250 μl/ml
minimum inhibition concentration of hemagglutination (glycoproteins; inhibitor: Human immune globulin A): >250 μl/ml
minimum inhibition concentration of hemagglutination (glycoproteins; inhibitor: Human immune globulin G): >250 μl/ml
minimum inhibition concentration of hemagglutination (glycoproteins; inhibitor: Lactoferrin): >250 μl/ml
minimum inhibition concentration of hemagglutination (glycoproteins; inhibitor: Mucin (bovine)): >250 μl/ml
minimum inhibition concentration of hemagglutination (glycoproteins; inhibitor: Mucin (pig)): >250 μl/ml
minimum inhibition concentration of hemagglutination (glycoproteins; inhibitor: Ribonuclease): >250 μl/ml
minimum inhibition concentration of hemagglutination (glycoproteins; inhibitor: Thyroglobulin): 250 μl/ml
minimum inhibition concentration of hemagglutination (glycoproteins; inhibitor: Transferrin): >250 μl/ml
minimum inhibition concentration of hemagglutination (glycoproteins; inhibitor: α1-acidic glycoprotein): >250 μl/ml
